Assay results taken from patent publication US10131652B2, “Pyrimidinyloxy benzene derivatives as herbicides” (E. I. DU PONT DE NEMOURS AND COMPANY, priority 2014, dated 2018).
Read-outs that look alike come from different tables or passages of the source.

Tests used:
Assay in all cases: Test F pre-/postemergence plant response
Type in all cases: in vivo
[1] = tested on: ragweed (common ragweed, Ambrosia elatior); settings: Ambrosia artemisiifolia, pre-emergence; Preemergence; scale 0 to 100; read-out: Plant response rating, Ragweed
Procedure, shortened: (§1)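 Formulation: non-phytotoxic solvent mix + surfactant. Preemergence: applied to seeded silt loam. Postemergence: foliar, 1- to 4-leaf plants, 2–18 cm. Greenhouse hold 14–21 days; visual score vs controls, 0 = no effect, 100 = complete control; dash = not tested.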

[2] = tested on: wild poinsettia (Euphorbia heterophylla); settings: Euphorbia heterophylla, scale 0 to 100, read-out: Plant response rating, Poinsettia, Wild
Procedure, shortened: as §1

[3] = tested on: field bindweed (Convolvulus arvensis); settings: Convolvulus arvensis, scale 0 to 100, read-out: Plant response rating, Field Bindweed
Procedure, shortened: as §1

[4] = tested on: dayflower (Virginia (VA) dayflower, Commelina virginica); settings: Commelina virginica, scale 0 to 100, read-out: Plant response rating, Dayflower, VA
Procedure, shortened: as §1

[5] = tested on: johnsongrass (Sorghum halepense); settings: Sorghum halepense, pre-emergence, scale 0 to 100, read-out: Plant response rating, Johnsongrass
Procedure, shortened: as §1

[6] = tested on: soybean (Glycine max); settings: Glycine max, scale 0 to 100, read-out: Plant response rating, Soybean
Procedure, shortened: as §1

[7] = tested on: barnyardgrass (Echinochloa crus-galli); settings: Echinochloa crus-galli, scale 0 to 100, read-out: Plant response rating, Barnyardgrass
Procedure, shortened: as §1

[8] = tested on: yellow nutsedge (Cyperus esculentus); settings: Cyperus, pre-emergence, scale 0 to 100, read-out: Plant response rating, Nutsedge, Yellow
Procedure, shortened: as §1

[9] = tested on: large (Lg) crabgrass (Digitaria sanguinalis); settings: Digitaria sanguinalis, pre-emergence, scale 0 to 100, read-out: Plant response rating, Crabgrass, Large
Procedure, shortened: as §1

[10] = post-emergence, 16 g ai/ha Postemergence
[11] = post-emergence, 31 g ai/ha Postemergence
[12] = post-emergence, 62 g ai/ha Postemergence
[13] = post-emergence, 125 g ai/ha Postemergence
[14] = pre-emergence, 16 g ai/ha Preemergence
[15] = pre-emergence, 31 g ai/ha Preemergence
[16] = pre-emergence, 125 g ai/ha Preemergence
[17] = pre-emergence, 62 g ai/ha Preemergence

Structure (SMILES): Fc1cccc(Oc2ncc(Cl)cn2)c1-c1cc(C(F)F)no1 [Compound 144, 5-chloro-2-[2-[3-(difluoromethyl)-5-isoxazolyl]-3-fluorophenoxy]pyrimidine]
- pest or weed control at 62 g/ha [1]: 95%
- pest or weed control at 16 g/ha [2, 10]: 50%
- pest or weed control at 31 g/ha [2, 11]: 50%
- pest or weed control at 62 g/ha [2, 12]: 70%
- pest or weed control at 125 g/ha [2, 13]: 65%
- pest or weed control at 16 g/ha [2, 14]: 0%
- pest or weed control at 31 g/ha [2, 15]: 0%
- pest or weed control at 125 g/ha [2, 16]: 35%
- pest or weed control at 62 g/ha ([2]; pre-emergence, Preemergence): 20%
- pest or weed control at 16 g/ha [3, 10]: 70%
- pest or weed control at 31 g/ha [3, 11]: 75%
- pest or weed control at 62 g/ha [3, 12]: 80%
- pest or weed control at 125 g/ha [3, 13]: 90%
- pest or weed control at 16 g/ha [3, 14]: 40%
- pest or weed control at 31 g/ha [3, 15]: 60%
- pest or weed control at 62 g/ha [3, 17]: 65%
- pest or weed control at 125 g/ha [3, 16]: 70%
- pest or weed control at 16 g/ha [4, 10]: 50%
- pest or weed control at 31 g/ha [4, 11]: 50%
- pest or weed control at 62 g/ha [4, 12]: 60%
- pest or weed control at 125 g/ha [4, 13]: 85%
- pest or weed control at 16 g/ha [4, 14]: 0%
- pest or weed control at 31 g/ha [4, 15]: 30%
- pest or weed control at 62 g/ha [4, 17]: 85%
- pest or weed control at 125 g/ha [4, 16]: 95%
- pest or weed control at 16 g/ha ([5]; 16 g ai/ha Preemergence): 0%
- pest or weed control at 31 g/ha ([5]; 31 g ai/ha Preemergence): 0%
- pest or weed control at 125 g/ha ([5]; 125 g ai/ha Preemergence): 70%
- pest or weed control at 62 g/ha ([5]; Preemergence): 30%
- plant injury at 16 g/ha [6, 10]: 65%
- plant injury at 31 g/ha [6, 11]: 95%
- plant injury at 62 g/ha [6, 12]: 98%
- plant injury at 125 g/ha [6, 13]: 95%
- plant injury at 31 g/ha [6, 15]: 10%
- plant injury at 125 g/ha [6, 16]: 75%
- plant injury at 62 g/ha ([6]; pre-emergence, Preemergence): 40%
- pest or weed control at 16 g/ha [7, 10]: 10%
- pest or weed control at 31 g/ha [7, 11]: 30%
- pest or weed control at 62 g/ha [7, 12]: 50%
- pest or weed control at 125 g/ha [7, 13]: 75%
- pest or weed control at 16 g/ha [7, 14]: 0%
- pest or weed control at 31 g/ha [7, 15]: 20%
- pest or weed control at 62 g/ha [7, 17]: 70%
- pest or weed control at 125 g/ha [7, 16]: 100%
- pest or weed control at 16 g/ha ([8]; 16 g ai/ha Preemergence): 0%
- pest or weed control at 31 g/ha ([8]; 31 g ai/ha Preemergence): 0%
- pest or weed control at 125 g/ha ([8]; 125 g ai/ha Preemergence): 0%
- pest or weed control at 62 g/ha ([8]; Preemergence): 0%
- pest or weed control at 16 g/ha ([9]; 16 g ai/ha Preemergence): 80%
- pest or weed control at 31 g/ha ([9]; 31 g ai/ha Preemergence): 100%
- pest or weed control at 62 g/ha ([9]; 62 g ai/ha Preemergence): 100%
- pest or weed control at 125 g/ha ([9]; 125 g ai/ha Preemergence): 100%
